Source: US20230302036A1, “COMPOSITIONS FOR TREATMENT OF SPINAL MUSCULAR ATROPHY” (priority 2020, published 2023)
Oligonucleotides are written 5' to 3', each unit as a sugar letter and its base; * is a phosphorothioate linkage, no mark a phosphodiester; rarer units and linkages stand in square brackets, end groups in braces. Plain capitals give the bases only. e = 2'-O-(2-methoxyethyl) (MOE); [5mC] = 5-methylcytosine

Key:
Type in all cases: cell-based, human
[1] = system: H3K9Ac along the SMN2 gene; assay: ChIP-qPCR of H3K9Ac distribution along the SMN2 gene in HEK293T cells; conditions: 10 mM VPA 12 hr or ASO1 transfection
Method: Four independent immunoprecipitation replicates were conducted per experiment. Data are represented as mean ± S.D. (n = 4, *p < 0.05, two-tailed Student's t test). […] Top: control Western blot for efficient expression of the c-Myc-SMN fusion protein encoded by plasmid […], cat.# 71687) using anti-tubulin (tub.) as loading control. Bottom: […] Distribution of these histone marks was assessed by ChIP-qPCR, with amplicons mapping near the numbered exons (E) and introns (i). Three independent immunoprecipitation replicates were conducted per experiment. Data are represented as mean ± S.D. (n = 5; in all cases p was much higher than 0.05, two-tailed Student's t test). […] Top: control Western blot for efficient expression of the […] fusion protein encoded by plasmid pEGFP-RNASEH1 (Addgene, cat.# 108699), using anti-actin (act.) as loading control. Bottom: […] Top: control Western blot for efficient AGO1 knockdown using anti-tubulin (tub.) as loading control. Bottom: […] RT-PCR conditions for FIGS. 10A, 10C and 10D were as in FIGS. 1A-1G . Approximately 2×10^6 HEK293T cells per sample were treated for 10 min in 1% (v/v) formaldehyde at room temperature to crosslink protein-DNA complexes. Crosslinking was stopped with glycine at a final concentration of 125 mM. […]

[2] = system: SMN2 pre-mRNA; assay: Transcriptional activation by RT-qPCR of SMN2 pre-mRNA in HEK293T cells; conditions: HDAC inhibitor alone
[3] = system: H3K9me2 on merged SMN1 and SMN2 genes; assay: Genome-wide ChIP-seq analysis of H3K9me2 mark deposition in HEK293T cells

Compound	H3K9 acetylation along the SMN2 gene [1]	levels of SMN2 pre-mRNA (promoter-proximal amplicon) [2]	reverting effect of VPA on SMN1/2 compared with control genes ([3]; ASO1+VPA/control+VPA, 11,738 protein-coding genes)	decrease of H3K9me2 methylation mark ([3]; HEK293T treated with VPA, merged SMN1 and SMN2 genes) [%]	share of control-set genes with lower ASO1/control fold enrichment than SMN1/2 ([3]; 11,738 protein-coding genes as reference)	enrichment of H3K9me2 ChIP-seq reads compared with the control ([3]; HEK293T, merged SMN1 and SMN2 genes) [%]
CCCC(CCC)C(=O)O [VPA, valproic acid]	promoted intragenic H3K9 acetylation	increased the levels of SMN2 pre-mRNA	higher than for the majority of the control genes	67		
ASO1: 5′-ATTCACTTTCATAATGCTGG-3′ 2′-O-methoxyethyl-modified oligonucleotide with phosphorothioate backbone and all 5-methyl cytosines; nusinersen variant with 2-nucleotide extension (antisense eA*eT*eT*e[5mC]*eA*e[5mC]*eT*eT*eT*e[5mC]*eA*eT*eA*eA*eT*eG*e[5mC]*eT*eG*eG)	not affected				~ 91 % of the genes in the control set	44
